Measured values from patent US9326988B2, “Treatment and/or prevention of parkinson's disease dementia with ceftriaxone” (CHUNG SHAN MEDICAL UNIVERSITY, priority 2012, dated 2016).

Legend:
rats with PDD [1] = assay: Object recognition test in MPTP-HCl-induced PDD rats; format: in vivo, male Wistar rats
Description: 1-methyl-4-phenyl-1,2,3,6-tetrahydropyridine hydrochloride (MPTP-HCl) was used to induce PDD in the rats, and the therapeutic effect of ceftriaxone on PDD was evaluated via behavioral tests and histopathological assessment of the brain for the rats. The experiments of this example were conducted substantially according to the method as described in Ho Y. J. et al. (2011), Behav. Brain Res., 219:280-290.
The rats in the pathological control group, the preventive groups, and the treatment groups were anesthetized using Zoletil (Virbac, Carros, France; 20 mg/kg, intraperitoneal injection). Afterward, 0.5 M MPTP-HCl (in saline) was slowly infused bilaterally into the substantia nigra pars compacta (SNc) of the mesencephalon of each rat in the pathological control group, the preventive groups, and the treatment groups (0.21 mg/side) so as to induce the same to develop PDD.
5 days before the MPTP-HCl injection, ceftriaxone (Sigma) was administered to the rats in the preventive groups 1,2 via intraperitoneal injection respectively at a daily dose of 100 mg/kg and at a daily dose of 200 mg/kg until the end of the 14th day after the MPTP-HCl injection. After the MPTP-HCl injection, ceftriaxone was administered to the rats in the treatment group 1 and the sham-operated groups 2,3 via intraperitoneal injection respectively at a daily dose of 200 mg/kg, at a daily dose of 100 mg/kg, and at a daily dose of 200 mg/kg, and saline was administered to the rats in the pathological control group and the sham-operated group 1 via intraperitoneal injection at a daily dose of 1 mL/kg. In addition, starting on the 3rd day after the MPTP-HCl injection, ceftriaxone was administered to the rats in the treatment groups 2,3 via intraperitoneal injection respectively at a daily dose of 100 mg/kg and at a daily dose of 200 mg/kg. The rats in the pathological control group, the treatment groups 1,2,3, and the sham-operated groups 1,2,3 were subjected to the once-a-day administration until the end of the 14th day after the MPTP-HCl injection.
Starting on the 8th day after the MPTP-HCl injection, the rats in each group were subjected to the T-maze test as described in section C of this example. Starting on the 12th day after the MPTP-HCl injection, the rats in each group were subjected to the object recognition test as described in section D of this example. On the 15th day after the MPTP-HCl injection, the rats in the treatment group 1, the sham-operated group 1, and the pathological control group were subjected to the histopathological analysis as described in section E of this example.
In order to examine the effect of ceftriaxone on the recognition and/or memory ability of the rats with PDD, starting on the 12th day after the MPTP-HCl injection, all of the rats in each group were subjected to an object recognition test lasting a total of three days.
The object recognition test is described as follows. The object recognition test included four trials. The first and second trilas were conducted respectively on the 12th and 13th after the MPTP-HCl injection, and the third and fourth trials were conducted on the 14th day after the MPTP-HCl injection. Each of the four trials lasted 5 minutes. The time interval between the first and second trials, and that between the second and third trials were 1 day. The time interval between the third and fourth trials was 5 minutes. At the beginning of each of the four trials, the respective rat was placed in the open box and adjacent to the corner C4 thereof. During the first, second, and third trials, the objects A1, A2, A3 were disposed in the open box for being able to be explored by the respective rat (see FIG. 2(A)). During the fourth trial, the object A3 was replaced with the object B (see FIG. 2(B)). During the object recognition test, a video camera installed above the open box was used to monitor and record the behavior of the respective rat.

rats with PDD [2] = assay: Nissl staining of pyramidal neurons in the hippocampal CA1 area of PDD rats; format: in vivo, male Wistar rats; conditions: Example 1 treatment group 1: 200 mg/kg daily i.p. for 14 days after MPTP-HCl; determined 15th day (FIG. 6)
From the text: (§1) In order to investigate whether ceftriaxone is effective in ameliorating neuroinflammation and neurodegeneration of the rats with PDD, on the 15th day after the MPTP-HCl injection, four rats were randomly selected from each of the treatment group 1, the sham-operated group 1, and the pathological control group for histopathological analysis.
(§2) The randomly selected rats were sacrificed using CO2, followed by perfusion with 4% paraformaldehyde (in phosphate buffered saline). The brains were rapidly removed and were post-fixed in a 30% sucrose solution containing 4% paraformaldehyde at 4° C. for at least three days. The brains were cut into coronal sections (a thickness of about 30 μm) using a cryostat (Leica CM3050 S, Leica).
In addition, the sections containing the hippocampal CA1 area were selected and were subjected to Nissl staining according to the method well known to and commonly used by one skilled in the art. […] Image Pro Plus Software 6.0 was utilized to estimate the percentage of an area occupied by pyramidal neurons in an area of 2,354 μm^2 according to the semi-quantitative method as described in Xavier L. L. et al. (2005), Brain Research protocols, 16:58-64.
The experimental data are expressed as mean±SEM. […]

rats with PDD [3] = assay: Immunohistochemical staining (OX-6) of activated microglia in the SNc of PDD rats; format: in vivo, male Wistar rats; conditions: Example 1 treatment group 1: 200 mg/kg daily i.p. for 14 days after MPTP-HCl; determined 15th day (FIG. 5)
From the text: as §1, §2
The sections containing SNc were selected. […]
The experimental data are expressed as mean±SEM. The experimental data were subjected to one-way ANOVA and were subsequently subjected to LSD test such that the difference between the pathological control group and the sham-operated group 1, and the difference between the treatment group 1 and the pathological control group could be evaluated. […]

aged-impaired (AI) rats = conditions: daily dose of 200 mg/kg for 7 days; cited from earlier work
[4] = system: 6-hydroxydopamine (6-OHDA)-lesioned rats; conditions: 6-OHDA-lesioned rats (animal model of PD); cited from earlier work

**Q.** What does the source list for `CO/N=C(\C(=O)N[C@@H]1C(=O)N2C(C(=O)O)=C(CSc3nc(=O)c(=O)[nH]n3C)CS[C@H]12)c1csc(N)n1` [ceftriaxone, Ceftriaxone]?
**A.** percentage of exploration time spent on object B in the fourth trial versus object A3 in the third trial (rats with PDD [1]; Example 1 preventive group 1: 100 mg/kg daily i.p. from 5 days before MPTP-HCl, determined 14th day (FIG. 4)): there is statistical significance; percentage of exploration time spent on object B in the fourth trial versus object A3 in the third trial (rats with PDD [1]; Example 1 preventive group 2: 200 mg/kg daily i.p. from 5 days before MPTP-HCl, determined 14th day (FIG. 4)): there is statistical significance; percentage of exploration time spent on object B in the fourth trial versus object A3 in the third trial (rats with PDD [1]; Example 1 treatment group 1: 200 mg/kg daily i.p. after MPTP-HCl injection to 14th day, determined 14th day (FIG. 4)): there is statistical significance; percentage of exploration time spent on object B in the fourth trial versus object A3 in the third trial (rats with PDD [1]; Example 1 treatment group 2: 100 mg/kg daily i.p. starting 3rd day after MPTP-HCl, determined 14th day (FIG. 4)): there is statistical significance; percentage of exploration time spent on object B in the fourth trial versus object A3 in the third trial (rats with PDD [1]; Example 1 treatment group 3: 200 mg/kg daily i.p. starting 3rd day after MPTP-HCl, determined 14th day (FIG. 4)): there is statistical significance; percentage of exploration time spent on object B in the fourth trial versus object A3 in the third trial (rats with PDD [1]; Example 2 treatment group 1: 10 mg/kg daily i.p. after MPTP-HCl injection, determined 14th day (FIG. 8)): there is statistical significance; percentage of exploration time spent on object B in the fourth trial versus object A3 in the third trial (rats with PDD [1]; Example 2 treatment group 2: 50 mg/kg daily i.p. after MPTP-HCl injection, determined 14th day (FIG. 8)): there is statistical significance; percentage of an area occupied by pyramidal neurons in the hippocampal CA1 area compared to the pathological control group (rats with PDD [2]): significantly higher; density of activated microglia in the SNc compared to the pathological control group (rats with PDD [3]): significantly lower; cognitive impairment (aged-impaired (AI) rats): able to ameliorate cognitive impairment of the AI rats; motor symptoms [4]: useful in amelioration of motor symptoms; neuroprotection of dopaminergic neurons [4]: neuroprotection of dopaminergic neurons
